Assay results taken from US10821115B2, “Compounds that inhibit Mcl-1 protein” (priority 2017, dated 2020).
Like-named read-outs stand apart in the source and are kept apart here.

Assays:
[1] = target: recombinant human Mcl-1 (residues 171-327) / Bim interaction (Homo sapiens (Human), UniProt Q07820); experiment: biochemical; format: binding; settings: read-out: Mcl-1 HTRF IC50
[2] = test system: human multiple myeloma cell line, OPM-2; experiment: Cell viability assay (OPM-2 10 FBS), CellTiter-Glo; format: cell-based
Outline: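 Steps: plate cells at 3000/well in 10% FBS growth medium, add serially diluted compound, incubate 16 h at 37 °C with 5% CO2, add detection reagent and read luminescence after 25 min. A 4-parameter logistic model gives IC50.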

[3] = TR-FRET, Mcl-1(171-327) / biotin-Bim (51-76)
[4] = Homo sapiens, OPM-2, 16 h, read-out: OPM-2 10% FBS IC50 IP, OPM-2 cells, 10% FBS, 16 h, CellTiter-Glo
[5] = read-out: OPM-2 10% FBS IC50 IP, OPM-2 cells, 10% FBS, 16 h, CellTiter-Glo
[6] = 0.1 nM Mcl-1(171-327), 0.05 nM biotin-Bim (51-76)
[7] = Homo sapiens, OPM-2, 16 h, read-out: OPM-2 10% FBS IC50 IP, OPM-2 cells, 10% FBS, 16 h incubation

recombinant human Mcl-1 (residues 171-327) / Bim interaction, sequence (Q07820 171-327): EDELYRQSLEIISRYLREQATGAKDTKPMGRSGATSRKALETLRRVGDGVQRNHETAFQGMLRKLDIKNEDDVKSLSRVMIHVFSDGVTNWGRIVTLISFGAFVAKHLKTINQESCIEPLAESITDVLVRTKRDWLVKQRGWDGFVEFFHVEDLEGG

Compound | IC50 [1, 3] [nM] | IC50 [2, 4] [nM] | IC50 [2, 5] [nM] | IC50 [1, 6] [nM] | IC50 [2, 7] [nM]
C[C@@H]1[C@@H](C)C/C=C/[C@@](O)(c2ncnn2C)C2CC[C@H]2CN2C[C@@]3(CCCc4cc(Cl)ccc43)COc3ccc(cc32)C(=O)NS1(=O)=O (stereo in doubt) [Example 100222, (1S,3′R,6′S,7′S,8′E,11′S,12′R)-6-chloro-7′-hydroxy-11′,12′-dimethyl-7′-(1-methyl-1H-1,2,4-triazol-5-yl)-3,4-dihydro-2H,15′H-spiro[naphthalene-1,22′-[20]oxa[13]thia[1,14]diazatetracyclo [14.7.2.0~3,6~.0~19,24~]pentacosa[8,16,18,24]tetraen]-15′-one 13′,13′-dioxide] | 0.182 | 222 | – | – | –
Cc1ccc([C@@]2(O)/C=C/C[C@H](C)[C@@H](C)S(=O)(=O)NC(=O)c3ccc4c(c3)N(C[C@@H]3CC[C@H]32)C[C@@]2(CCCc3cc(Cl)ccc32)CO4)cn1 [Example 100407, (1S,3′R,6′R,7′R,8′E,11′S,12′R)-6-chloro-7′-hydroxy-11′,12′-dimethyl-7′-(6-methyl-3-pyridinyl)-3,4-dihydro-2H,15′H-spiro[naphthalene-1,22′-[20]oxa[13]thia[1,14]diazatetracyclo [14.7.2.0~3,6~.0~19,24~]pentacosa[8,16,18,24]tetraen]-15′-one 13′,13′-dioxide] | 0.278 | 516 | – | – | –
Cc1ccc([C@]2(O)/C=C/C[C@H](C)[C@@H](C)S(=O)(=O)NC(=O)c3ccc4c(c3)N(C[C@@H]3CC[C@H]32)C[C@@]2(CCCc3cc(Cl)ccc32)CO4)cn1 (single isomer, unassigned) [Example 100408] | 1.35 | 5620 | – | – | –
C[C@@H]1[C@@H](C)C/C=C/[C@](O)(c2cncnc2)[C@@H]2CC[C@H]2CN2C[C@@]3(CCCc4cc(Cl)ccc43)COc3ccc(cc32)C(=O)NS1(=O)=O [Example 100410, (1S,3′R,6′R,7′R,8′E,11′S,12′R)-6-chloro-7′-hydroxy-11′,12′-dimethyl-7′-(5-pyrimidinyl)-3,4-dihydro-2H,15′H-spiro[naphthalene-1,22′-[20]oxa[13]thia[1,14]diazatetracyclo [14.7.2.0~3,6~.0~19,24~]pentacosa[8,16,18,24]tetraen]-15′-one 13′,13′-dioxide] | 0.127 | 297 | – | – | –
C[C@@H]1[C@@H](C)CCC[C@](O)(CC[S@@+](C)[O-])[C@@H]2CC[C@H]2CN2C[C@@]3(CCCc4cc(Cl)ccc43)COc3ccc(cc32)C(=O)NS1(=O)=O [Example 100330, (1S,3′R,6′R,7′S,11′S,12′R)-6-chloro-7′-hydroxy-11′,12′-dimethyl-7′-(2-((R)-methylsulfinyl)ethyl)-3,4-dihydro-2H,15′H-spiro[naphthalene-1,22′-[20]oxa[13]thia[1,14]diazatetracyclo [14.7.2.0~3,6~.0~19,24~]pentacosa[16,18,24]trien]-15′-one 13′,13′-dioxide] | 0.083 | 8260 | – | – | –
CO[C@@]1(CCN2CCCCC2)/C=C/C[C@H](C)[C@@H](C)S(=O)(=O)NC(=O)c2ccc3c(c2)N(C[C@@H]2CC[C@H]21)C[C@@]1(CCCc2cc(Cl)ccc21)CO3 [Example 100428, (1S,3′R,6′R,7′S,8′E,11′S,12′R)-6-chloro-7′-methoxy-11′,12′-dimethyl-7′-(2-(1-piperidinyl)ethyl)-3,4-dihydro-2H,15′H-spiro[naphthalene-1,22′-[20]oxa[13]thia[1,14]diazatetracyclo [14.7.2.0~3,6~.0~19,24~]pentacosa[8,16,18,24]tetraen]-15′-one 13′,13′-dioxide] | 0.21 | 218 | – | – | –
C[C@@H]1[C@@H](C)C/C=C/[C@](O)(c2nccn2C)[C@@H]2CC[C@H]2CN2C[C@@]3(CCCc4cc(Cl)ccc43)COc3ccc(cc32)C(=O)NS1(=O)=O [Example 100198, (1S,3′R,6′R,7′R,8′E,11′S,12′R)-6-chloro-7′-hydroxy-11′,12′-dimethyl-7′-(1-methyl-1H-imidazol-2-yl)-3,4-dihydro-2H,15′H-spiro[naphthalene-1,22′-[20]oxa[13]thia[1,14]diazatetracyclo [14.7.2.0~3,6~.0~19,24~]pentacosa[8,16,18,24]tetraen]-15′-one 13′,13′-dioxide] | 0.307 | – | 399 | – | –
Cc1ncoc1C[C@]1(O)/C=C/C[C@H](C)[C@@H](C)S(=O)(=O)NC(=O)c2ccc3c(c2)N(C[C@@H]2CC[C@H]21)C[C@@]1(CCCc2cc(Cl)ccc21)CO3 [Example 100572, (1S,3′R,6′R,7′S,8′E,11′S,12′R)-6-chloro-7′-hydroxy-11′,12′-dimethyl-7′-((4-methyl-1,3-oxazol-5-yl)methyl)-3,4-dihydro-2H,15′H-spiro[naphthalene-1,22′-[20]oxa[13]thia[1,14]diazatetracyclo [14.7.2.0~3,6~.0~19,24~]pentacosa[8,16,18,24]tetraen]-15′-one 13′,13′-dioxide] | 0.174 | 1160 | – | – | –
C[C@@H]1[C@@H](C)CCC[C@](O)(C[C@H]2CCCN(C)C2)[C@@H]2CC[C@H]2CN2C[C@@]3(CCCc4cc(Cl)ccc43)COc3ccc(cc32)C(=O)NS1(=O)=O (single isomer, unassigned) [Example 100399] | 0.28 | 2810 | – | – | –
CO[C@]1(C)CCC[C@H](C)[C@@H](C)S(=O)(=O)NC(=O)c2ccc3c(c2)N(C[C@@H]2CC[C@H]21)C[C@@]1(CCCc2cc(Cl)ccc21)CO3 (single isomer, unassigned) [Example 100212] | 0.901 | – | 1620 | – | –
C[C@@H]1[C@@H](C)C/C=C/[C@](O)(CC(=O)N2CCC2)[C@@H]2CC[C@H]2CN2C[C@@]3(CCCc4cc(Cl)ccc43)COc3ccc(cc32)C(=O)NS1(=O)=O [Example 100292, (1S,3′R,6′R,7′R,8′E,11′S,12′R)-7′-(2-(1-azetidinyl)-2-oxoethyl)-6-chloro-7′-hydroxy-11′,12′-dimethyl-3,4-dihydro-2H,15′H-spiro[naphthalene-1,22′-[20]oxa[13]thia[1,14]diazatetracyclo [14.7.2.0~3,6~.0~19,24~]pentacosa[8,16,18,24]tetraen]-15′-one 13′,13′-dioxide] | 0.115 | 672 | – | – | –
CC[C@@H]1CC/C=C/[C@@](CN2CCN3CCCC[C@@H]3C2)(OC)[C@@H]2CC[C@H]2CN2C[C@@]3(CCCc4cc(Cl)ccc43)COc3ccc(cc32)C(=O)NS1(=O)=O [Example 32, (1S,3′R,6′R,7′R,8′E,12′R)-6-chloro-12′-ethyl-7′-methoxy-7′-((9aR)-octahydro-2H-pyrido[1,2-a]pyrazin-2-ylmethyl)-3,4-dihydro-2H,15′H-spiro[naphthalene-1,22′-[20]oxa[13]thia[1,14]diazatetracyclo [14.7.2.0~3,6~.0~19,24~]pentacosa[8,16,18,24]tetraen]-15′-one 13′,13′-dioxide] | – | – | – | 0.128 | 147
CO[C@]1(C2SCCCS2)/C=C/[C@H](C)[C@H](C)CS(=O)(=O)NC(=O)c2ccc3c(c2)N(C[C@@H]2CC[C@H]21)C[C@@]1(CCCc2cc(Cl)ccc21)CO3 [Example 100569, (1S,3′R,6′R,7′R,8′E,10′S,11′S)-6-chloro-7′-(1,3-dithian-2-yl)-7′-methoxy-10′,11′-dimethyl-3,4-dihydro-2H,15′H-spiro[naphthalene-1,22′-[20]oxa[13]thia[1,14]diazatetracyclo [14.7.2.0~3,6~.0~19,24~]pentacosa[8,16,18,24]tetraen]-15′-one 13′,13′-dioxide] | 2.48 | 2000 | – | – | –
COCC(C)(C)N1CCN(C[C@]2(OC)/C=C/C[C@H](C)[C@@H](C)S(=O)(=O)NC(=O)c3ccc4c(c3)N(C[C@@H]3CC[C@H]32)C[C@@]2(CCCc3cc(Cl)ccc32)CO4)CC1 [Example 297, (1S,3′R,6′R,7′S,8′E,11′S,12′R)-6-chloro-7′-methoxy-7′-((4-(2-methoxy-1,1-dimethylethyl)-1-piperazinyl)methyl)-11′,12′-dimethyl-3,4-dihydro-2H,15′H-spiro[naphthalene-1,22′-[20]oxa[13]thia[1,14]diazatetracyclo [14.7.2.0~3,6~.0~19,24~]pentacosa[8,16,18,24]tetraen]-15′-one 13′,13′-dioxide] | – | – | – | 0.128 | 66
C[C@@H]1[C@@H](C)C/C=C/[C@](O)(Cc2ccnc(C#N)c2)[C@@H]2CC[C@H]2CN2C[C@@]3(CCCc4cc(Cl)ccc43)COc3ccc(cc32)C(=O)NS1(=O)=O [Example 100187, 4-(((1S,3′R,6′R,7′R,8′E,11′S,12′R)-6-chloro-7′-hydroxy-11′,12′-dimethyl-13′,13′-dioxido-15′-oxo-3,4-dihydro-2H-spiro[naphthalene-1,22′-[20]oxa[13]thia[1,14]diazatetracyclo [14.7.2.0~3,6~.0~19,24~]pentacosa[8,16,18,24]tetraen]-7′-yl)methyl)-2-pyridinecarbonitrile] | 2.76 | – | 3110 | – | –
CC[C@@H]1CCCC[C@@](O)(CO)[C@@H]2CC[C@H]2CN2C[C@@]3(CCCc4cc(Cl)ccc43)COc3ccc(cc32)C(=O)NS1(=O)=O [Example 100035, (1S,3′R,6′R,7′S,12′R)-6-chloro-12′-ethyl-7′-hydroxy-7′-(hydroxymethyl)-3,4-dihydro-2H,15′H-spiro[naphthalene-1,22′-[20]oxa[13]thia[1,14]diazatetracyclo [14.7.2.0~3,6~.0~19,24~]pentacosa[16,18,24]trien]-15′-one 13′,13′-dioxide] | 0.601 | 1470 | – | – | –
